Columns and labels:
[1] = CuAAC (i,i+4) side-chain stapling of azidolysine with propargylglycine or O-propargylserine; CuSO4·5H2O (1 eq), Na ascorbate (5 eq); from purified linear peptides; conditions: the molecule shown is the open-chain precursor, tBuOH/H2O 1:2, 0.5 mM, 25.0 °C
[2] = CuAAC (i,i+4) side-chain stapling of azidolysine with propargylglycine or O-propargylserine; CuSO4·5H2O (1 eq), Na ascorbate (5 eq); from crude linear peptides; conditions: the molecule shown is the open-chain precursor, tBuOH/H2O 1:2, 0.5 mM, 25.0 °C
[3] = test system: β2AR (β2AR-Δ4 construct, C265 bimane-labelled); experiment: Conformational bimane fluorescence shift assay on purified mBBr-labelled β2AR; type: biochemical; conditions: increasing concentrations of ISO, saturating at 250 μM and 500 μM
Description: To further investigate their pharmacological profiles, selected peptidomimetics were tested in a bimane fluorescence shift assay (see ESI ^†). […] Stimulation of purified, C265 fluorophore-labelled β2AR with increasing concentrations of ISO results in a concentration-dependent decrease in the fluorescence intensity (FI) and a red-shift of the maximum emission wavelength (λmax) of the bimane-fluorophore probe (Fig. 5A).
Bimane-fluorescence curves in presence of agonist or peptidomimetic alone or in combination were normalised to that of the receptor alone.
Conformational biman e fluorescence assay
Baculovirus es containing the β2AR-Δ4 construct (full-length β 2AR with four mutated
cystein es (C77V, C327S , C378 A and C406A10,11) were generated as pr eviousl y d escribed b y
Rosenbaum et al.12 The modi fied β 2AR wa s ex pre s sed in S f9 insect cel ls using r ecombi na nt
baculovi rus and pu rified b y M1-anti- FLAG im munoaffinit y chr omatograph y. The F LAG -
purified receptor was l abe lled with monobromobimane (mBBr) and purified b y alprenolol
affinit y chr omato graph y as described b y Yao et al. 13 with one minor change; the modified β2AR
was labelled with an excess of 10 µM mBBr (instead of equivalent amounts of β 2AR and
mBBr). […]
ligands and peptide s were subtracted from the samples. Data was analysed b y use of the […]

[4] = molecular target: T1, β2-adrenergic receptor (β2AR) (Homo sapiens, UniProt P07550); experiment: Membrane-based cAMP accumulation assay (HTRF), ISO-induced cAMP formation; type: biochemical
T1 construct: expressed in transfected cells; host or cells: HEK293 cells stably overexpressing β2AR; membrane fractions used
T1 sequence (P07550 whole entry, species assumed): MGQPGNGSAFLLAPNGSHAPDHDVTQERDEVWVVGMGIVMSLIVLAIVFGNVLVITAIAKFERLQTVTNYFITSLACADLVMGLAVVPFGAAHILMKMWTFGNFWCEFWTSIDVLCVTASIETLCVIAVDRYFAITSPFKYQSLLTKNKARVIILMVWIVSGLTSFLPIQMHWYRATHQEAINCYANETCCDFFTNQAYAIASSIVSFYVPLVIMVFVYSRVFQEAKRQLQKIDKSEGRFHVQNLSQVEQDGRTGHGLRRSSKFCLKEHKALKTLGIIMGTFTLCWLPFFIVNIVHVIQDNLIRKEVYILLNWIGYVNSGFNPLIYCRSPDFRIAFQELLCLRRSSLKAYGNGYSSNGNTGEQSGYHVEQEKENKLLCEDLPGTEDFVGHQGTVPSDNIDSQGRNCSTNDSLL
Description: To allow the peptidomimetics to interact with the intracellular G protein binding pocket they were tested in a membrane-based cAMP accumulation assay (see ESI ^†). […] The cAMP levels in absence of peptidomimetics were normalised to the basal (0%) and maximal efficacy (100%) of ISO in presence of vehicle (DMSO).
overexpressing the β2AR8 were prepared and the peptidomimetics tested as previously
peptidomimetics diluted in HBSS buffer supplemented with 20 mM HEPES pH 7.5, 0.1 %
Elmer) at room temperature (RT) for 15 min. Then isoproterenol solutions for the
prepared in ligand buffer (HBSS buffer supplemented with 20 mM HEPES pH 7.5, 0.1 %
added to the wells and incubated for 30 min at room temperature. To detect cAMP formation
the HTRF cAMP d ynamic 2 assa y kit from CisBio (cat no. 2AM4PEC) was used according
to the manufactures protocol. The absolute cAMP levels were determined using a cAMP
standard curve and norm alised to the maximal cAMP response obtained by full isoproterenol
stimulation alone. Significant differen ces b etween IS O alon e and in presence of the p eptides
were calculat ed statisticall y b y use of on e- wa y ANOVA in the GraphPad Prism software.

SMILES: C#CC[C@H](NC(=O)[C@H](CCCNC(=N)N)NC(=O)[C@H](CCC(N)=O)NC(=O)[C@@H](NC(=O)[C@@H](CCCCN=[N+]=[N-])NC(=O)[C@H](CC(=O)O)NC(=O)[C@H](CCCNC(=N)N)NC(C)=O)[C@@H](C)CC)C(=O)N[C@@H](Cc1cnc[nH]1)C(=O)N[C@@H](CC(C)C)C(=O)N[C@@H](CCCNC(=N)N)C(=O)N[C@@H](CCC(N)=O)C(=O)N[C@@H](Cc1ccc(O)cc1)C(=O)N[C@@H](CCC(=O)O)C(=O)N[C@@H](CC(C)C)C(=O)N[C@@H](CC(C)C)C(=O)O [Ac-R-D-(D-K(N3))-I-Q-R-Pra-H-L-R-Q-Y-E-L-L-OH]
- ring closure, isolated yield ([1]; 21-membered ring, 0.25 h): 56%

SMILES: C#CCOC[C@H](NC(=O)[C@H](CCCNC(=N)N)NC(=O)[C@H](CCC(N)=O)NC(=O)[C@@H](NC(=O)[C@@H](CCCCN=[N+]=[N-])NC(=O)[C@H](CC(=O)O)NC(=O)[C@H](CCCNC(=N)N)NC(C)=O)[C@@H](C)CC)C(=O)N[C@@H](Cc1cnc[nH]1)C(=O)N[C@@H](CC(C)C)C(=O)N[C@@H](CCCNC(=N)N)C(=O)N[C@@H](CCC(N)=O)C(=O)N[C@@H](Cc1ccc(O)cc1)C(=O)N[C@@H](CCC(=O)O)C(=O)N[C@@H](CC(C)C)C(=O)N[C@@H](CC(C)C)C(=O)O [Ac-R-D-(D-K(N3))-I-Q-R-Ser(O-propargyl)-H-L-R-Q-Y-E-L-L-OH]
- ring closure, isolated yield ([1]; 23-membered ring): 40%

SMILES: C#CC[C@H](NC(=O)[C@H](CCCC)NC(=O)[C@H](CCCNC(=N)N)NC(=O)[C@H](CCC(N)=O)NC(=O)[C@@H](CCCCN=[N+]=[N-])NC(=O)[C@@H](NC(=O)[C@H](CC(=O)O)NC(=O)[C@H](CCCNC(=N)N)NC(C)=O)[C@@H](C)CC)C(=O)N[C@@H](CC(C)C)C(=O)N[C@@H](CCCNC(=N)N)C(=O)N[C@@H](CCC(N)=O)C(=O)N[C@@H](Cc1ccc(O)cc1)C(=O)N[C@@H](CCC(=O)O)C(=O)N[C@@H](CC(C)C)C(=O)N[C@@H](CC(C)C)C(=O)O [Ac-R-D-I-(D-K(N3))-Q-R-Nle-Pra-L-R-Q-Y-E-L-L-OH]
- ring closure, overall yield ([2]; 21-membered ring): 11%

SMILES: C#CCOC[C@H](NC(=O)[C@H](CCCC)NC(=O)[C@H](CCCNC(=N)N)NC(=O)[C@H](CCC(N)=O)NC(=O)[C@@H](CCCCN=[N+]=[N-])NC(=O)[C@@H](NC(=O)[C@H](CC(=O)O)NC(=O)[C@H](CCCNC(=N)N)NC(C)=O)[C@@H](C)CC)C(=O)N[C@@H](CC(C)C)C(=O)N[C@@H](CCCNC(=N)N)C(=O)N[C@@H](CCC(N)=O)C(=O)N[C@@H](Cc1ccc(O)cc1)C(=O)N[C@@H](CCC(=O)O)C(=O)N[C@@H](CC(C)C)C(=O)N[C@@H](CC(C)C)C(=O)O [Ac-R-D-I-(D-K(N3))-Q-R-Nle-Ser(O-propargyl)-L-R-Q-Y-E-L-L-OH]
- ring closure, overall yield ([2]; 23-membered ring): 13%

SMILES: C#CC[C@H](NC(=O)[C@H](CCCNC(=N)N)NC(=O)[C@H](CC(C)C)NC(=O)[C@H](Cc1cnc[nH]1)NC(=O)[C@@H](CCCCN=[N+]=[N-])NC(=O)[C@H](CCCNC(=N)N)NC(=O)[C@H](CCC(N)=O)NC(=O)[C@@H](NC(=O)[C@@H](NC(=O)[C@H](CC(=O)O)NC(=O)[C@H](CCCNC(=N)N)NC(C)=O)[C@@H](C)CC)[C@@H](C)CC)C(=O)N[C@@H](Cc1ccc(O)cc1)C(=O)N[C@@H](CCC(=O)O)C(=O)N[C@@H](CC(C)C)C(=O)N[C@@H](CC(C)C)C(=O)O [Ac-R-D-I-I-Q-R-(D-K(N3))-H-L-R-Pra-Y-E-L-L-OH]
- ring closure, overall yield ([2]; 21-membered ring, 1.0 h): 26%

SMILES: C#CCOC[C@H](NC(=O)[C@H](CCCNC(=N)N)NC(=O)[C@H](CC(C)C)NC(=O)[C@H](Cc1cnc[nH]1)NC(=O)[C@@H](CCCCN=[N+]=[N-])NC(=O)[C@H](CCCNC(=N)N)NC(=O)[C@H](CCC(N)=O)NC(=O)[C@@H](NC(=O)[C@@H](NC(=O)[C@H](CC(=O)O)NC(=O)[C@H](CCCNC(=N)N)NC(C)=O)[C@@H](C)CC)[C@@H](C)CC)C(=O)N[C@@H](Cc1ccc(O)cc1)C(=O)N[C@@H](CCC(=O)O)C(=O)N[C@@H](CC(C)C)C(=O)N[C@@H](CC(C)C)C(=O)O [Ac-R-D-I-I-Q-R-(D-K(N3))-H-L-R-Ser(O-propargyl)-Y-E-L-L-OH]
- ring closure, overall yield ([2]; 23-membered ring, 3.0 h): 11%

SMILES: C#CC[C@H](NC(=O)[C@H](CCCNC(=N)N)NC(=O)[C@H](CC(C)C)NC(=O)[C@H](Cc1cnc[nH]1)NC(=O)[C@H](CCCCN=[N+]=[N-])NC(=O)[C@H](CCCNC(=N)N)NC(=O)[C@H](CCC(N)=O)NC(=O)[C@@H](NC(=O)[C@@H](NC(=O)[C@H](CC(=O)O)NC(=O)[C@H](CCCNC(=N)N)NC(C)=O)[C@@H](C)CC)[C@@H](C)CC)C(=O)N[C@@H](Cc1ccc(O)cc1)C(=O)N[C@@H](CCC(=O)O)C(=O)N[C@@H](CC(C)C)C(=O)N[C@@H](CC(C)C)C(=O)O [Ac-R-D-I-I-Q-R-K(N3)-H-L-R-Pra-Y-E-L-L-OH]
- ring closure, overall yield ([2]; 21-membered ring, 3.0 h): 10%

SMILES: C#CCOC[C@H](NC(=O)[C@H](CCCNC(=N)N)NC(=O)[C@H](CC(C)C)NC(=O)[C@H](Cc1cnc[nH]1)NC(=O)[C@H](CCCCN=[N+]=[N-])NC(=O)[C@H](CCCNC(=N)N)NC(=O)[C@H](CCC(N)=O)NC(=O)[C@@H](NC(=O)[C@@H](NC(=O)[C@H](CC(=O)O)NC(=O)[C@H](CCCNC(=N)N)NC(C)=O)[C@@H](C)CC)[C@@H](C)CC)C(=O)N[C@@H](Cc1ccc(O)cc1)C(=O)N[C@@H](CCC(=O)O)C(=O)N[C@@H](CC(C)C)C(=O)N[C@@H](CC(C)C)C(=O)O [Ac-R-D-I-I-Q-R-K(N3)-H-L-R-Ser(O-propargyl)-Y-E-L-L-OH]
- ring closure, overall yield ([2]; 23-membered ring, 2.0 h): 14%

SMILES: C#CC[C@H](NC(=O)[C@H](CCCC)NC(=O)[C@H](CCCNC(=N)N)NC(=O)[C@H](CCC(N)=O)NC(=O)[C@H](CCCCN=[N+]=[N-])NC(=O)[C@@H](NC(=O)[C@H](CC(=O)O)NC(=O)[C@H](CCCNC(=N)N)NC(C)=O)[C@@H](C)CC)C(=O)N[C@@H](CC(C)C)C(=O)N[C@@H](CCCNC(=N)N)C(=O)N[C@@H](CCC(N)=O)C(=O)N[C@@H](Cc1ccc(O)cc1)C(=O)N[C@@H](CCC(=O)O)C(=O)N[C@@H](CC(C)C)C(=O)N[C@@H](CC(C)C)C(=O)O [Ac-R-D-I-K(N3)-Q-R-Nle-Pra-L-R-Q-Y-E-L-L-OH]
- ring closure, overall yield ([2]; 21-membered ring): 10%

SMILES: C#CCOC[C@H](NC(=O)[C@H](CCCC)NC(=O)[C@H](CCCNC(=N)N)NC(=O)[C@H](CCC(N)=O)NC(=O)[C@H](CCCCN=[N+]=[N-])NC(=O)[C@@H](NC(=O)[C@H](CC(=O)O)NC(=O)[C@H](CCCNC(=N)N)NC(C)=O)[C@@H](C)CC)C(=O)N[C@@H](CC(C)C)C(=O)N[C@@H](CCCNC(=N)N)C(=O)N[C@@H](CCC(N)=O)C(=O)N[C@@H](Cc1ccc(O)cc1)C(=O)N[C@@H](CCC(=O)O)C(=O)N[C@@H](CC(C)C)C(=O)N[C@@H](CC(C)C)C(=O)O [Ac-R-D-I-K(N3)-Q-R-Nle-Ser(O-propargyl)-L-R-Q-Y-E-L-L-OH]
- ring closure, overall yield ([2]; 23-membered ring, 1.0 h): 15%

SMILES: C#CC[C@H](NC(=O)[C@H](CCCNC(=N)N)NC(=O)[C@H](CCC(N)=O)NC(=O)[C@@H](NC(=O)[C@H](CCCCN=[N+]=[N-])NC(=O)[C@H](CC(=O)O)NC(=O)[C@H](CCCNC(=N)N)NC(C)=O)[C@@H](C)CC)C(=O)N[C@@H](Cc1cnc[nH]1)C(=O)N[C@@H](CC(C)C)C(=O)N[C@@H](CCCNC(=N)N)C(=O)N[C@@H](CCC(N)=O)C(=O)N[C@@H](Cc1ccc(O)cc1)C(=O)N[C@@H](CCC(=O)O)C(=O)N[C@@H](CC(C)C)C(=O)N[C@@H](CC(C)C)C(=O)O [Ac-R-D-K(N3)-I-Q-R-Pra-H-L-R-Q-Y-E-L-L-OH]
- ring closure, isolated yield ([1]; 21-membered ring, 0.25 h): 36%

SMILES: C#CCOC[C@H](NC(=O)[C@H](CCCNC(=N)N)NC(=O)[C@H](CCC(N)=O)NC(=O)[C@@H](NC(=O)[C@H](CCCCN=[N+]=[N-])NC(=O)[C@H](CC(=O)O)NC(=O)[C@H](CCCNC(=N)N)NC(C)=O)[C@@H](C)CC)C(=O)N[C@@H](Cc1cnc[nH]1)C(=O)N[C@@H](CC(C)C)C(=O)N[C@@H](CCCNC(=N)N)C(=O)N[C@@H](CCC(N)=O)C(=O)N[C@@H](Cc1ccc(O)cc1)C(=O)N[C@@H](CCC(=O)O)C(=O)N[C@@H](CC(C)C)C(=O)N[C@@H](CC(C)C)C(=O)O [Ac-R-D-K(N3)-I-Q-R-Ser(O-propargyl)-H-L-R-Q-Y-E-L-L-OH]
- ring closure, isolated yield ([1]; 23-membered ring, 1.0 h): 69%

SMILES: CC(C)NC[C@H](O)c1ccc(O)c(O)c1 [ISO, (−)-isoproterenol]
- Effect on bimane fluorescence (FI and λmax) / receptor conformation [3]: induces an active receptor conformation in a concentration-dependent manner

SMILES: CC[C@H](C)[C@H](NC(=O)[C@H](CC(=O)O)NC(=O)[C@H](CCCNC(=N)N)NC(C)=O)C(=O)N[C@H](C(=O)N[C@@H](CCC(N)=O)C(=O)N[C@@H](CCCNC(=N)N)C(=O)N[C@H]1CCCCn2cc(nn2)C[C@@H](C(=O)N[C@@H](Cc2ccc(O)cc2)C(=O)N[C@@H](CCC(=O)O)C(=O)N[C@@H](CC(C)C)C(=O)N[C@@H](CC(C)C)C(=O)O)NC(=O)[C@H](CCCNC(=N)N)NC(=O)[C@H](CC(C)C)NC(=O)[C@H](Cc2c[nH]cn2)NC1=O)[C@@H](C)CC [Peptide 10C]
- Maximum efficacy of ISO ([4]; ISO CRC in presence of 100 μM peptidomimetic, HEK293 membranes overexpressing β2AR, normalised to ISO with vehicle (100%), mean ± SEM, n = 3, * P < 0.05): 61.0 ± 4.1* %
- Basal level (basal cAMP level of the ISO concentration-response curve) ([4]; ISO CRC in presence of 100 μM peptidomimetic, HEK293 membranes overexpressing β2AR, normalised to basal (0%) and maximal efficacy (100%) of ISO with vehicle (DMSO), 15 min preincubation, 30 min RT, mean ± SEM, n = 3): −11.0 ± 4.3%
- Hill slope of the ISO concentration-response curve ([4]; in presence of 100 μM peptidomimetic, mean ± SEM, n = 3): 0.63 ± 0.06
- IC50 ([4]; in presence of an ISO concentration corresponding to EC75, 10C up to 200 μM, read-out: IC50 for blocking ISO-induced cAMP formation (estimated)): 55 µM
